Experimental data taken from PMC10981309, “Dual-targeting tigecycline nanoparticles for treating intracranial infections caused by multidrug-resistant Acinetobacter baumannii” (Journal of Nanobiotechnology, 2024).
Converted amounts (≈) assume the structure as drawn.

How the values were obtained:
[1] = In vitro drug release, dialysis method in PBS pH 7.4; type: physicochemical; settings: PBS pH 7.4, 37 °C
Experimental: An in vitro drug release study was conducted employing the dialysis method, with phosphate-buffered saline (PBS, pH = 7.4) as the release medium. For this study, 2 mL aliquots of free Tigecycline (TGC), CSs, or Aβ11/T80@CSs (each containing 1 mg of TGC) were sealed in dialysis bags with a molecular weight cutoff of 3.5 kDa. These bags were then immersed in 30 mL of PBS and gently agitated at 37 °C. At predetermined time intervals, 1.0 mL of PBS was sampled from outside each dialysis bag for HPLC analysis, and an equivalent volume of fresh PBS was replenished to maintain a constant volume in the release medium.

bEnd.3 cells monolayer = assay: Transmembrane transport assay, in vitro BBB model; type: in vitro ADME; settings: bEnd.3 Transwell monolayer, apical to basolateral, TGC by HPLC
Experimental: An in vitro blood–brain barrier (BBB) model using bEnd.3 cells was developed to assess nanoparticle penetration. 2.0 × 10^5 cells were cultured in a Transwell chamber, achieving an intercellular compactness verified at 200 Ω·cm^2 transendothelial electrical resistance. […] Using Hank's Balanced Salt Solution, nanoparticles were added to the apical side and co-incubated. At intervals, 200 μL HBSS was sampled from the basolateral side for TGC concentration analysis via HPLC.

[2] = system: multidrug-resistant A. baumannii; assay: Minimum inhibitory concentration, microbroth dilution; type: cell-based; settings: Acinetobacter baumannii; 1 × 10^5 CFU/mL, 24 h, OD 600 nm
Experimental: Mid-log phase bacteria, diluted to 1 × 10^5 CFU/mL, were mixed with these compounds (0.125–16 μg/mL) and incubated in 96-well plates for 24 h, with bacterial density measured at 600 nm. In a rat model, MDR A. baumannii was injected intracisternally (20 μL, 1 × 10^8 CFU/mL) into the CSF. […] CSF was collected after 24 h and cultured, with colony counts noted after 24 h at 37 °C.

[3] = Pharmacokinetics after intravenous injection; type: in vivo; settings: female, Sprague-Dawley, rat, rats, i.v. 12.5 mg/kg TGC, plasma
Experimental: In the pharmacokinetic study, adult female Sprague–Dawley rats, weighing between 200 and 250 g, were used. Prior to the experiment, the animals were fasted overnight with free access to water. […] Each group received an intravenous administration of TGC at a dose of 12.5 mg/kg via the tail vein. Blood samples were collected at predetermined time points (0.25, 0.5, 1, 2, 4, 6, and 8 h), and then placed into 2 mL Eppendorf tubes. These samples were centrifuged at 10,000 rpm for 10 min at 4 °C to separate the plasma. A portion of the plasma was mixed with methanol in a 1:4 volume ratio and further centrifuged at 13,000 rpm for 10 min at 4 °C. The supernatant was collected for TGC concentration determination using HPLC. Pharmacokinetic parameters were subsequently calculated using the statistical analysis tool DAS2.

Hemolysis assay = assay: Hemolysis assay; parameters: species or system rats; settings: rat; 2% erythrocyte suspension, 37 °C, three hours, relative to positive control (water); read-out: hemolysis rate
Experimental: The hemolytic activity of Aβ11/T80@CSs was assessed using erythrocytes from healthy rats. Blood samples were collected, and red blood cells were isolated through centrifugation, followed by suspension in normal saline to create a 2% erythrocyte solution. Two milliliters of this erythrocyte suspension were mixed with free TGC, CSs, or Aβ11/T80@CSs and incubated at 37 °C for three hours. Post-incubation, the samples were centrifuged, and the absorbance of the supernatant was measured using spectrophotometry at 570 nm. Purified water and normal saline served as positive and negative controls, respectively. The percentage of hemolysis was calculated using the following formula: Hemolysis%=Asample-Anegative/Apositive-Anegativ×100%

bEnd.3 cells = assay: Cell cytotoxicity, MTT assay; type: cell-based; settings: 24-h incubation, across a range of TGC concentrations
[4] = Histological analysis (H&E) of heart, liver, spleen, lungs and kidneys; type: in vivo, rats; settings: compared to normal control group
Description: To further investigate the biosafety of the various formulations in vivo, blood samples were collected post-administration for biochemical analysis. After euthanizing the rats, their heart, liver, spleen, lung, and kidney tissues were harvested. These tissues underwent hematoxylin and eosin (H&E) staining and were subsequently imaged using a pathology slide scanner.

CN(C)c1cc(NC(=O)CNC(C)(C)C)c(O)c2c1C[C@H]1C[C@H]3[C@H](N(C)C)C(O)=C(C(N)=O)C(=O)[C@@]3(O)C(O)=C1C2=O [Free-TGC, Tigecycline]
time to complete release [1]: within three hours | permeability / transport capacity across in vitro BBB model (bEnd.3 cells monolayer): lowest permeability | MIC [2]: 2 µg/mL (≈ 3.41 µM) | Cmax [3]: 3700 ± 620 ng/mL | Tmax [3]: 15 min | clearance [3]: 20 mL/min/kg | half-life [3]: 46.2 ± 14.4 min | AUC(0-t) ([3]; 0-8 h): 8480 ± 2900 ng·h/mL | MRT last ([3]; read-out: MRT(0-t)): 156 ± 9.6 min | hemolysis at 3 h (Hemolysis assay): < 5% | cell survival rate (bEnd.3 cells): exceeded 80% | histopathology of heart, liver, spleen, lungs and kidneys [4]: no significant pathological alterations
